From PubChem BioAssay (NCI)
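Briefly, cells in 96-well plates were exposed to five compound concentrations for 48 h, and endpoints were estimated by linear interpolation. GI50 is the concentration that inhibits growth by half. The concentration for full growth arrest is given as TGI.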

How the values were obtained:
Experiment in all cases: inhibition of tumour cell growth, NCI panel, 48 h
A498 renal = system: A498 renal
UO-31 renal = system: UO-31 renal
BT-549 breast = system: BT-549 breast
SK-MEL-28 melanoma = system: SK-MEL-28 melanoma
NCI-H522 lung = system: NCI-H522 lung
MCF7 breast = system: MCF7 breast
MDA-MB-435 = system: MDA-MB-435
NCI/ADR-RES ovarian = system: NCI/ADR-RES ovarian
IGROV1 ovarian = system: IGROV1 ovarian
EKVX NSCLC = system: EKVX NSCLC

Row | Compound | GI50 (A498 renal) | TGI (A498 renal) | GI50 (UO-31 renal) | TGI (UO-31 renal) | GI50 (BT-549 breast) | TGI (BT-549 breast) | GI50 (SK-MEL-28 melanoma) | TGI (SK-MEL-28 melanoma) | GI50 (NCI-H522 lung) | TGI (NCI-H522 lung) | GI50 (MCF7 breast) | TGI (MCF7 breast) | GI50 (MDA-MB-435) | TGI (MDA-MB-435) | GI50 (NCI/ADR-RES ovarian) | TGI (NCI/ADR-RES ovarian) | GI50 (IGROV1 ovarian) | TGI (IGROV1 ovarian) | GI50 (EKVX NSCLC) | TGI (EKVX NSCLC)
1 | NS(=O)(=O)c1ccc(N2N=C(c3cccs3)CC2c2ccccc2O)cc1 (stereo not given) | 835 nM | 4.01 µM | 4010 nM | 12.1 µM | 2050 nM | 9.15 µM | 2.12 µM | 8.62 µM | 0.644 µM | 1.51 µM | 1.01 µM | 4.45 µM | 704 nM | 1.8 µM | 4.84 µM | 19 µM | 1.6 µM | 14.2 µM |  | 
2 | CCc1c2c(nc3ccc(OCc4ccc(B5OC(C)(C)C(C)(C)O5)cc4)cc13)-c1cc3c(c(=O)n1C2)COC(=O)[C@]3(O)CC | 40.6 nM | 0.376 µM | 32.6 nM | 1.02 µM | 75.7 nM | > 100 µM | 0.604 µM | > 100 µM | 0.0204 µM | > 100 µM |  |  | 101 nM | > 100 µM | 0.0622 µM | > 100 µM | 0.134 µM | > 100 µM | 431 nM | > 100 µM
3 | CNc1ncc2cc(Oc3ccc(F)cc3F)c(=O)n(C)c2n1 | 11900 nM | > 25 µM | > 25000 nM | > 25 µM | > 25000 nM | > 25 µM | > 25 µM | > 25 µM | > 25 µM | > 25 µM | > 25 µM | > 25 µM | > 25000 nM | > 25 µM | > 25 µM | > 25 µM | > 25 µM | > 25 µM |  | 
4 | Cc1ccc([N+](=O)[O-])c2c(NCCC[N+](C)(C)[O-])ccnc12 |  | 90.5 µM |  | > 100 µM |  |  |  | > 100 µM |  | 32.6 µM |  | 38.1 µM |  | > 100 µM |  | > 100 µM |  | 67.3 µM |  | > 100 µM
5 | Oc1ccc(O)c2c1C1(Cl)C(Cl)=C(Cl)C2(Cl)C1(Cl)Cl | 1830 nM | 6.23 µM | 2430 nM | 10.6 µM |  |  | 10.9 µM | 81 µM | 3.55 µM | 12.1 µM | 6.4 µM | > 100 µM | 1700 nM | 4.86 µM | 3.03 µM | 9.53 µM | 5.73 µM | 20.2 µM | 1470 nM | 7.45 µM
6 | O=C1NC(SCc2ccc(F)cc2)=N/C1=C/c1cccc(OCc2ccc(Cl)cc2)c1 | 3530 nM | 26.2 µM |  |  | 23400 nM | > 100 µM | > 100 µM | > 100 µM | 57.3 µM | > 100 µM | 19.7 µM | > 100 µM | > 100000 nM | > 100 µM | 22.2 µM | > 100 µM | 4.91 µM | > 100 µM | 8860 nM | > 100 µM
7 | O=C1OC(OC/C(Br)=C(/Br)COC2OC(=O)C(Cl)=C2Cl)C(Cl)=C1Cl (stereo not given) |  | 38 µM |  | 15.6 µM |  |  |  | 23.3 µM |  | 4.53 µM |  | 30.9 µM |  | 24.2 µM |  | 36.9 µM |  | 28.2 µM |  | 32.2 µM
8 | COC1C(O)C(C)OC(O[C@@H]2C[C@H]3CC[C@@H]4[C@H](CC[C@]5(C)[C@@H](C6=CC(=O)OC6)CC[C@]45O)[C@@]3(C)[C@H](O)C2)C1O (stereo not given in full) |  | 0.0871 µM |  |  |  | 0.159 µM |  | 0.819 µM |  | 0.132 µM |  |  |  | 0.379 µM |  | 0.183 µM |  |  |  | 0.168 µM
